Where two headings read alike, the source gives them in different places.
Key:
NDM-1 = NDM-1 (Klebsiella pneumoniae, UniProt C7C422); test: biochemical; format: biochemical; details: read-out: NDM-1 IC50
IMP-1 = IMP-1 (Serratia marcescens, UniProt P52699); test: biochemical; format: biochemical; details: read-out: IMP-1 IC50
VIM-1 = VIM-1 (Pseudomonas aeruginosa (strain ATCC 15692 / DSM 22644 / CIP 104116 / JCM 14847 / LMG 12228 / 1C / PRS 101 / PAO1), UniProt A0A0F7KYQ8); test: Enzyme activity: determination of IC50, fluorescence assay with CCF2-FA substrate (VIM-1); format: biochemical
[1] = tested on: Escherichia coli expressing NDM-1 (CLB30005); test: Antibiotic potentiation activity: synergistic concentration (MITC95) with imipenem, OD600 growth; format: cell-based; details: for Escherichia coli expressing NDM-1 (CLB 30005) MITC95: concentration giving 95% inhibition of bacterial growth; for Escherichia coli MITC95: Escherichia coli expressing NDM-1 (CLB30005), 95% growth inhibition
Procedure, shortened: (§1)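 Clinical MBL-producing strains (E. coli NDM-1, S. marcescens IMP-1, K. pneumoniae VIM-1) from overnight plates were diluted 1:100 into 1.1×CAMHB. Compound was tested with imipenem at 4 μg/ml (optionally 1 μg/ml) or without it. After 22–24 h at 35 °C, growth was read as OD600.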

[2] = tested on: Klebsiella pneumoniae expressing VIM-1 (IHMA599644); test: as above; format: cell-based; details: for Klebsiella pneumoniae expressing VIM-1 (IHMA 599644) MITC95: concentration giving 95% inhibition of bacterial growth; for Klebsiella pneumoniae MITC95: Klebsiella pneumoniae expressing VIM-1 (IHMA599644), 95% growth inhibition
Procedure, shortened: as §1

[3] = tested on: Serratia marcescens expressing IMP-1 (CL5741); test: as above; format: cell-based; details: for Serratia marcescens expressing IMP-1 (CL5741) MITC95: concentration giving 95% inhibition of bacterial growth; for Serratia marcescens MITC95: Serratia marcescens expressing IMP-1 (CL5741), 95% growth inhibition
Procedure, shortened: as §1

[4] = fluorescence assay with CCF2-FA substrate
[5] = fluorescence assay with CCF2-FA substrate, read-out: VIM-1 IC50
[6] = NDM-1 enzyme, CCF2-FA fluorescence assay
[7] = IMP-1 enzyme, CCF2-FA fluorescence assay
[8] = VIM-1 enzyme, CCF2-FA fluorescence assay, read-out: VIM-1 IC50

Chain of IMP-1 (P52699 whole entry, looked up): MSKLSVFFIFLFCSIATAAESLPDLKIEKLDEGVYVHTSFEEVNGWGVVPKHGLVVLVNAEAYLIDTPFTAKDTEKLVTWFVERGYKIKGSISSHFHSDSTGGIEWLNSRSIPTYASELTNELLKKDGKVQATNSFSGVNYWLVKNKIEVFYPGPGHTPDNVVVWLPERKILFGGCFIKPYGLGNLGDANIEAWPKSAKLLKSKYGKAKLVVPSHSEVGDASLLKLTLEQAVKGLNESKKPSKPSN
Chain of NDM-1 (C7C422 whole entry, looked up, species assumed): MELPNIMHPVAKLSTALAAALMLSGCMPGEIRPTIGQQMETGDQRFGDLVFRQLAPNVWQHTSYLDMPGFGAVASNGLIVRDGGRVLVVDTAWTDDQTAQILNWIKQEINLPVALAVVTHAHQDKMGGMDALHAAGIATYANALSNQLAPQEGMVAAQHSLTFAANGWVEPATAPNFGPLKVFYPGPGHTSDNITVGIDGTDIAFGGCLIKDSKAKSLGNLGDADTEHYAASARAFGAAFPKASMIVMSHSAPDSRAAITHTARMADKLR

SMILES	IC50 (NDM-1; [4])	IC50 (IMP-1; [4])	IC50 (VIM-1; [5])	Escherichia coli expressing NDM-1 (CLB 30005) MITC95 [1]	Klebsiella pneumoniae expressing VIM-1 (IHMA 599644) MITC95 [2]	Serratia marcescens expressing IMP-1 (CL5741) MITC95 [3]	IC50 (VIM-1; VIM-1 IC50, fluorescence assay with CCF2-FA substrate)	IC50 (NDM-1; [6])	IC50 (IMP-1; [7])	IC50 (VIM-1; [8])	Escherichia coli MITC95 [1]	Klebsiella pneumoniae MITC95 [2]	Serratia marcescens MITC95 [3]	IC50 (VIM-1; VIM-1 IC50, VIM-1 enzyme, CCF2-FA fluorescence assay)
NS(=O)(=O)c1cccc(-c2ccc3cn[nH]c3c2)c1-c1nn[nH]n1 [Example 90, 3-(1H-indazol-6-yl)-2-(2H-tetrazol-5-yl)benzenesulfonamide]	2.24 nM	197 nM	15.5 nM	0.5859 µM	12.5 µM	25 µM								
Cc1ccccc1-c1ccnc(S(N)(=O)=O)c1-c1nn[nH]n1 [Example 210, 3-(2H-tetrazol-5-yl)-4-(o-tolyl)pyridine-2-sulfonamide]	11.8 nM	421 nM	25.5 nM	0.5208 µM	15.63 µM	25 µM								
CC1C(=O)Nc2ccc(-c3cccc(S(N)(=O)=O)c3-c3nn[nH]n3)cc21 (stereo not drawn) [Example 73, 3-(3-methyl-2-oxo-2,3-dihydro-1H-indo1-5-yl)-2-(2H-tetrazol-5-yl)benzenesulfonamide]	6.49 nM	156 nM	66.7 nM	1.563 µM	100 µM	18.75 µM								
Cn1nccc1-c1cccc(S(N)(=O)=O)c1-c1nn[nH]n1 [Example 49, 3-(1-methyl-1H-pyrazol-5-yl)-2-(2H-tetrazol-5-yl)benzenesulfonamide]	21.6 nM	4050 nM	61.7 nM	0.5859 µM	12.5 µM	150 µM								
COc1ccc(-c2cccc(S(N)(=O)=O)c2-c2nn[nH]n2)cc1 [Example 8, 4′-methoxy-2-(2H-tetrazol-5-yl)biphenyl-3-sulfonamide]	3.99 nM	78.2 nM		0.3906 µM	200 µM	3.125 µM	79.8 nM							
NS(=O)(=O)c1c(Br)ccc(-c2ccc(C3CCNCC3)cc2)c1-c1nnn[nH]1 [Example 259, 4-Bromo-4′-(piperidin-4-yl)-2-(1H-tetrazol-5-yl)-[1,1′-biphenyl]-3-sulfonamide]								11 nM	10.1 nM	3.1 nM	1.584 µM	3.125 µM	1 µM	
NS(=O)(=O)c1cccc(-c2ccc3c(=O)nc[nH]c3c2)c1-c1nn[nH]n1 [Example 69, 3-(4-oxo-1,4-dihydroquinazolin-7-yl)-2-(2H-tetrazol-5-yl)benzenesulfonamide]	5.05 nM	237 nM	26.4 nM	0.7813 µM	25 µM	18.75 µM								
NS(=O)(=O)c1nccc(-c2ccc(C3CCNC3)cc2)c1-c1nnn[nH]1 (stereo not drawn) [Example 198, 4-(4-(pyrrolidin-3-yl)phenyl)-3-(1H-tetrazol-5-yl)pyridine-2-sulfonamide]	68.4 nM	1170 nM	101 nM	0.3906 µM	2.344 µM	3.125 µM								
NS(=O)(=O)c1cccc(-c2cnc(N3CCOCC3)nc2)c1-c1nn[nH]n1 [Example 94, 3-(2-morpholin-4-ylpyrimidin-5-yl)-2-(2H-tetrazol-5-yl)benzenesulfonamide]	6.32 nM	164 nM	234 nM	2.344 µM	100 µM	12.5 µM								
Cc1ccc(-c2cc(-c3cccc(C(N)=O)c3)cc(S(N)(=O)=O)c2-c2nn[nH]n2)cc1 [Example 295, 4″-methyl-5′-sulfamoyl-4′-(2H-tetrazol-5-yl)-[1,1′:3′,1″-terphenyl]-3-carboxamide]								0.637 nM	16.1 nM	126 nM	1.953 µM	>200 µM	1.563 µM	
Cc1ccc(-c2cccc(S(N)(=O)=O)c2-c2nnn[nH]2)cn1 [Example 299, 3-(6-methylpyridin-3-yl)-2-(1H-tetrazol-5-yl)benzenesulfonamide]								11.8 nM	444 nM		0.1953 µM	37.5 µM	18.75 µM	110 nM
NS(=O)(=O)c1cccc(C2=CCSCC2)c1-c1nn[nH]n1 [Example 62, 3-(3,6-dihydro-2H-thiopyran-4-yl)-2-(2H-tetrazol-5-yl)benzenesulfonamide]	8.47 nM	211 nM	186 nM	1.563 µM	100 µM	100 µM								
NS(=O)(=O)c1cccc(-c2cnn3ncccc23)c1-c1nn[nH]n1 [Example 105, 3-pyrazolo[1,5-b]pyridazin-3-yl-2-(2H-tetrazol-5-yl)benzenesulfonamide]	14.3 nM	374 nM	70.4 nM	0.9766 µM	18.75 µM	31.25 µM								
Cn1ncc2cc(-c3cccc(S(N)(=O)=O)c3-c3nn[nH]n3)ccc21 [Example 68, 3-(1-methyl-1H-indazol-5-yl)-2-(2H-tetrazol-5-yl)benzenesulfonamide]	1.99 nM	81.9 nM	33.7 nM	2.344 µM	75 µM	12.5 µM								
CCNC(=O)N1CCC(c2cccc(S(N)(=O)=O)c2-c2nn[nH]n2)CC1 [Example 174, N-ethyl-4-(3-sulfamoyl-2-(2H-tetrazol-5-yl)phenyl)piperidine-1-carboxamide]	4.54 nM	403 nM	262 nM	2.344 µM	100 µM	12.5 µM								
NS(=O)(=O)c1nccc(-c2ccc(C3CCOCC3)cc2)c1-c1nnn[nH]1 [Example 187, 4-(4-(Tetrahydro-2H-pyran-4-yl)phenyl)-3-(1H-tetrazol-5-yl)pyridine-2-sulfonamide]	2.81 nM	28.9 nM	150 nM	15.63 µM	>200 µM	25 µM								
NS(=O)(=O)c1cccc(C(=O)O)c1-c1nn[nH]n1 [Example 297, 3-Sulfamoyl-2-(2H-tetrazol-5-yl)benzoic acid]								2480 nM	20000 nM	20000 nM	12.5 µM	>200 µM	>200 µM	
NS(=O)(=O)c1nccc(-c2ccc(C3CCNCC3)cc2)c1-c1nnn[nH]1 [Example 197, 4-(4-(piperidin-4-yl)phenyl)-3-(1H-tetrazol-5-yl)pyridine-2-sulfonamide]	130 nM	582 nM	70.2 nM	0.3906 µM	1.563 µM	1.563 µM								
NS(=O)(=O)c1cccc(C#CCC2CNCCO2)c1-c1nn[nH]n1 (stereo not drawn) [Example 145, 3-(3-morpholin-2-ylprop-1-yn-1-yl)-2-(2H-tetrazol-5-yl)benzenesulfonamide]	191 nM	2410 nM	6410 nM	0.7813 µM	>200 µM	75 µM								
NS(=O)(=O)c1nccc(-c2ccc3cn[nH]c3c2)c1-c1nn[nH]n1 [Example 203, 4-(1H-indazol-6-yl)-3-(2H-tetrazol-5-yl)pyridine-2-sulfonamide]	18.6 nM	1430 nM	43.6 nM	0.3906 µM	9.375 µM	50 µM								
NS(=O)(=O)c1nccc(-c2ccc3c(c2)CNC3=O)c1-c1nnn[nH]1 [Example 192, 4-(1-oxoisoindolin-5-yl)-3-(1H-tetrazol-5-yl)pyridine-2-sulfonamide]	36.4 nM	439 nM	98.1 nM	1.953 µM	50 µM	50 µM								

Reference: US9708336B2, “Metallo-beta-lactamase inhibitors” (priority 2014, dated 2017)
